This is an account of results in ChEMBL document CHEMBL4402571, “Methylation of Daptomycin Leading to the Discovery of Kynomycin, a Cyclic Lipodepsipeptide Active against Resistant Pathogens” (J Med Chem, 2020).

Series [1] deals with Erythrocyte. The series is described as follows: Hemolytic activity against rat RBC at 320 ug/ml measured after 1 hr. It is filed as ADME, cell-based.
The nature of series [2]: Aqueous solubility of the compound in 0.9% NaCl at >= 100 measured after 15 mins. In kind it is physicochemical. The conditions noted are these: buffer, 0.25 h.
For series [3], the system named is HEK293. The series is described as follows: Cytotoxicity against HEK293 cells assessed as reduction in cell viability at 80 mg/ml measured after 24 hrs by MTT assay. In kind it is cell-based. The settings on record: human, hek293, 24 h. In general terms: Formazan colour is commonly taken as a measure of viable cells.
The test system of series [4] is HEK293. The series is described as follows: Cytotoxicity against HEK293 cells assessed as reduction in cell viability at 40 mg/ml measured after 24 hrs by MTT assay. In kind it is cell-based. The settings on record: human, hek293, 24 h.
The subject of series [5] is Staphylococcus aureus. The series is described as follows: Antibacterial activity against methicillin-resistant Staphylococcus aureus SA14 by broth microdilution method. In kind it is functional. Background: Broth dilution looks for growth in wells or tubes with falling amounts of substance.
The subject of series [6] is Staphylococcus aureus. The series is described as follows: Antibacterial activity against methicillin-resistant Staphylococcus aureus SA86 by broth microdilution method. It is filed as functional.
The test system of series [7] is Staphylococcus aureus. The series is described as follows: Antibacterial activity against methicillin-resistant Staphylococcus aureus SA88 by broth microdilution method. In kind it is functional.
Series [8] relates to Enterococcus faecium. The series is described as follows: Antibacterial activity against Enterococcus faecium ET6 by broth microdilution method. It is filed as functional.
The subject of series [9] is Enterococcus faecium. The series is described as follows: Antibacterial activity against Enterococcus faecium ET60 by broth microdilution method. In kind it is functional.
Series [10] concerns Enterococcus faecalis. The series is described as follows: Antibacterial activity against Streptococcus faecalis by broth microdilution method. In kind it is functional.
Series [11] has as its system Staphylococcus aureus. The series is described as follows: Antibacterial activity against Staphylococcus aureus ATCC 29213 by broth microdilution method. In kind it is functional.
The subject of series [12] is Staphylococcus aureus. The series is described as follows: Antibacterial activity against methicillin-resistant Staphylococcus aureus SA11 by broth microdilution method. It is filed as functional.
The test system of series [13] is Enterococcus faecalis. The series is described as follows: Antibacterial activity against Enterococcus faecalis ATCC 29212 by broth microdilution method. It is filed as functional.
Series [14] has as its system Staphylococcus aureus. The series is described as follows: Antibacterial activity against Staphylococcus aureus USA300 infected in Balb/c mouse model of sepsis assessed as mouse survival at 0.925 mg/kg, sc administered twice daily for 5 days starting from 1 hr post-infection relative to control. It is filed as functional.
The subject of series [15] is Enterococcus faecalis. The series is described as follows: Antibacterial activity against Enterococcus faecalis T1027 infected in Galleria mellonella larvae assessed as larvae survival at 50 mg/kg measured at 96 hrs post-infection relative to control. In kind it is functional. The conditions noted are these: T1027, 96 h.
Series [16] concerns Staphylococcus aureus. The series is described as follows: Antibacterial activity against methicillin-resistant Staphylococcus aureus 0114 infected in iv dosed CD-1 ICR mouse administered as single dose measured after 7 days. In kind it is functional. The conditions noted are these: Staphylococcus aureus, 0114, iv, 168 h.
The test system of series [17] is Enterococcus faecalis. The series is described as follows: Bactericidal activity against Enterococcus faecalis ATCC 29212 incubated prior to replating on agar plate measured after overnight incubation. In kind it is functional.
The test system of series [18] is Enterococcus faecalis. The series is described as follows: Antibacterial activity against Enterococcus faecalis ZS129 infected in Galleria mellonella larvae assessed as larvae survival at 50 mg/kg measured at 96 hrs post-infection relative to control. It is filed as functional. The settings on record: ZS129, 96 h.
The test system of series [19] is Enterococcus faecalis. The series is described as follows: Antibacterial activity against Enterococcus faecalis ATCC 29212 assessed as mutation prevention concentration measured after 72 hrs. It is filed as functional. The conditions noted are these: ATCC 29212, 72 h.
The test system of series [20] is Staphylococcus aureus. The series is described as follows: Antibacterial activity against methicillin-resistant Staphylococcus aureus ATCC 33591 infected in iv dosed CD-1 ICR mouse administered as single dose measured after 7 days. The settings on record: ATCC 33591, iv, 168 h. It is filed as functional.
In series [21] the test system is Staphylococcus aureus. The series is described as follows: Bactericidal activity against Staphylococcus aureus ATCC 29213 incubated prior to replating on agar plate measured after overnight incubation. In kind it is functional.
Series [22] deals with Staphylococcus aureus. The series is described as follows: Antibacterial activity against Staphylococcus aureus ATCC 29213 assessed as mutation prevention concentration measured after 72 hrs. In kind it is functional. The conditions noted are these: ATCC 29213, 72 h.

Converted amounts (≈) assume the structure as drawn.

For the molecule `CCCCCCCCCC(=O)N[C@@H](Cc1c[nH]c2ccccc12)C(=O)N[C@H](CC(N)=O)C(=O)N[C@@H](CC(=O)O)C(=O)N[C@@H]1C(=O)NCC(=O)N[C@@H](CCCN)C(=O)N[C@@H](CC(=O)O)C(=O)N[C@H](C)C(=O)N[C@@H](CC(=O)O)C(=O)NCC(=O)N[C@H](CO)C(=O)N[C@@H]([C@H](C)CC(=O)O)C(=O)N[C@@H](CC(=O)c2ccccc2NC)C(=O)O[C@@H]1C` [listing 1 of 2 here], the Activity result in series [1] is “Non-Toxic”; in series [3] it was “Toxic”; in [4] it was “Non-Toxic”. Moreover, in [2], the solubility result is on record as “Soluble”.

`CCCCCCCCCC(=O)N[C@@H](Cc1c[nH]c2ccccc12)C(=O)N[C@@H](CC(N)=O)C(=O)N[C@@H](CC(=O)O)C(=O)N[C@@H]1C(=O)N(C)CC(=O)N[C@@H](CCCN)C(=O)N[C@@H](CC(=O)O)C(=O)N[C@H](C)C(=O)N[C@@H](CC(=O)O)C(=O)NCC(=O)N[C@H](CO)C(=O)N[C@@H]([C@H](C)CC(=O)O)C(=O)N[C@@H](CC(=O)c2ccccc2N)C(=O)O[C@@H]1C`: the MIC – broadly, the smallest concentration in the dilution series that meets the test's criterion for growth inhibition – was 0.25 µg/mL (≈ 0.153 µM) in series [5]; 0.5 µg/mL (≈ 0.306 µM) in [6]; 0.5 µg/mL (≈ 0.306 µM) in [7]; 8 µg/mL (≈ 4.89 µM) in series [8]; 4 µg/mL (≈ 2.45 µM) in series [9]; 2 µg/mL (≈ 1.22 µM) in series [10]. Also, the MIC in [11] was 0.5 µg/mL (≈ 0.306 µM); in series [12], 0.5 µg/mL (≈ 0.306 µM); in [13], 8 µg/mL (≈ 4.89 µM).

Take `CCCCCCCCCC(=O)N[C@@H](Cc1c[nH]c2ccccc12)C(=O)N[C@H](CC(N)=O)C(=O)N[C@@H](CC(=O)O)C(=O)N[C@@H]1C(=O)NCC(=O)N[C@@H](CCCN)C(=O)N[C@@H](CC(=O)O)C(=O)N[C@H](C)C(=O)N[C@@H](CC(=O)O)C(=O)NCC(=O)N[C@H](CO)C(=O)N[C@@H]([C@H](C)CC(=O)O)C(=O)N[C@@H](CC(=O)c2ccccc2NC)C(=O)O[C@@H]1C` [listing 2 of 2 here]: the MIC in series [5] worked out at 0.25 µg/mL (≈ 0.153 µM); in [6] it was 0.25 µg/mL (≈ 0.153 µM); in series [7] it was 0.25 µg/mL (≈ 0.153 µM); in [8], 1 µg/mL (≈ 0.612 µM); in series [9], 1 µg/mL (≈ 0.612 µM); in series [10] it was 0.5 µg/mL (≈ 0.306 µM). Also, the MIC in series [11] is 0.25 µg/mL (≈ 0.153 µM); in series [12], 0.5 µg/mL (≈ 0.306 µM); in series [13] it was 1 µg/mL (≈ 0.612 µM). In addition, the survival at 0.925 mg/kg in [14] turned out to be 100%. Moreover, the survival at 50 mg/kg in series [15] turned out to be 60%; in [18], 40%. The ED50 (as a rule, the midpoint of the dose-response relation) turned out to be 1.65 mg/kg in series [16] and 1.38 mg/kg in series [20]. For the same molecule, the values for the MBC in series [17] and in [21] were 4 µg/mL (≈ 2.45 µM) and 0.06 µg/mL (≈ 0.0367 µM), respectively. Moreover, the MPC in [19] was found to be 16 µg/mL; in series [22], 8 µg/mL.
